# Source: patent US4622328A, “Phenyl-naphthyridines and drugs containing them, particularly anti-ulcer drugs” (priority 1984, dated 1986)
# Like-named read-outs stand apart in the source and are kept apart here.
# Legend:
# [1] = tested on: gastric lesions (ulcers) provoked by nonsteroid antiinflammatory agent; assay: Anti-ulcer activity: protection of gastric lesions provoked by a medicamentous ulcer forming agent (nonsteroid antiinflammatory agent); format: in vivo, male rats of OFA (Iffa Credo) strain; conditions: for ED50: Rattus norvegicus, po, read-out: AD50 (active dose 50)
# Description: (§1) Batches of 10 to 30 male rats of OFA (Iffa Credo) strain, weighing 160-180 g, are placed on a water diet 24 hours before the oral administration of the product studied. Thirty minutes later, a medicamentous ulcer-forming agent or a necrosing agent (for example absolute ethanol) is administered by the oral route at doses which cause in the control animals a maximum gastric ulceration. The stomachs are removed, according to the test, 6 and 1 hr. respectively after the last treatment. The gastric lesions are then assessed macroscopically (dimensioning and measurement of the size of the ulcers).
# (§2) They are expressed in the form of % of inhibition of the ulcers. The active dose 50 is determined graphically.
# [2] = tested on: gastric lesions (ulcers) provoked by ethanol; assay: Anti-ulcer activity: protection of gastric lesions provoked by a necrosing agent (ethanol); format: in vivo, male rats of OFA (Iffa Credo) strain; conditions: for ED50: Rattus norvegicus, po, read-out: AD50 (active dose 50)
# Description: as §1, §2
# oedema (carragenin) = assay: Anti-inflammatory activity: inhibition of carragenin oedema of the paw; format: in vivo, male rats of CD (Charles River) strain
# Description: Batches of 6 to 12 male rats of CD (Charles River) strain, weighing 120-130 g, receive for food and drink a 9 o/oo solution of sodium chloride and 200 o/oo of glucose 18 hours before the test.
# The volume of the paw is measured by plethysmography at regular intervals.
# The active dose 50 and its limits are determined from the linear regression. The significance of the results is given by the Student "t" test (*, ** and *** for p<0.05, p<0.01 and […]).
# [3] = tested on: painful reactions (phenylbenzoquinone); assay: Analgesic activity: inhibition of painful reactions (twists and stretches) to phenylbenzoquinone; format: in vivo, male mice of CDl (Charles River) strain; conditions: for DA50 (active dose): VO, linear regression
# Description: Batches of 6 to 18 male mice of CDl (Charles River) strain, weighing 18 to 22 g, receive by the intraperitoneal route a water-alcohol 0.02% solution of phenylbenzoquinone 1 hour after treatment by the oral route. The number of painful reactions is counted from the 5th to the 10th minute.
# The active dose and its limits are determined from the linear regression.
# in vivo = conditions: fasting Sprague Dawley rat, oral route
# total acid secretion = assay: Anti-secretory activity: inhibition of total acid secretion after pyloric ligature; format: in vivo, male rats of OFA (Iffa Credo) strain; conditions: for ED50: Rattus norvegicus, 4 h, read-out: AD50 (active dose 50); for % of inhibition of the total acid secretion: 4 hours
# Description: A pyloric ligature is made under ether anaesthesia on batches of 5 male rats of OFA (Iffa Credo) strain weighing 180-200 g. The product studied is administered by the oral or sub-cutaneous route at the time of the ligature. The animals are sacrificed 4 hours later and the acidity of the gastric fluid collected is titered by 0.1N sodium hydroxide to pH 4 and 7.
# They are expressed in percentage of inhibition of the total acid secretion. The active dose 50 is determined from the linear regression. The significance is given by the Student "t" test (* and ** for p<0.05 and p<0.01).
# [4] = VO, NSAID lesions, determined graphically
# [5] = VO, ethanol lesions, determined graphically
# [6] = 0.06 mg.kg-1 VO, ethanol lesions
# [7] = 0.25 mg.kg-1 VO, ethanol lesions
SMILES,"% of protection of lesions provoked ([1]; 4 mg.kg-1 VO, NSAID lesions) [%]","% of protection of lesions provoked ([1]; 8 mg.kg-1 VO, NSAID lesions) [%]","% of protection of lesions provoked ([1]; 16 mg.kg-1 VO, NSAID lesions) [%]","% of protection of lesions provoked ([1]; 32 mg.kg-1 VO, NSAID lesions) [%]","ED50 [1, 4] [mg/kg]","% of protection of lesions provoked ([2]; 1 mg.kg-1 VO, ethanol lesions) [%]","% of protection of lesions provoked ([2]; 4 mg.kg-1 VO, ethanol lesions) [%]","ED50 [2, 5] [mg/kg]",% of inhibition of the oedema (oedema (carragenin); 4 mg.kg-1 VO) [%],% of inhibition of the oedema (oedema (carragenin); 16 mg.kg-1 VO) [%],% of inhibition of the oedema (oedema (carragenin); 64 mg.kg-1 VO) [%],% of inhibition of the oedema (oedema (carragenin); 128 mg.kg-1 VO) [%],% of inhibition of the oedema (oedema (carragenin); 256 mg.kg-1 VO) [%],% of inhibition of the painful reactions ([3]; 16 mg.kg-1 VO) [%],% of inhibition of the painful reactions ([3]; 32 mg.kg-1 VO) [%],% of inhibition of the painful reactions ([3]; 64 mg.kg-1 VO) [%],% of inhibition of the painful reactions ([3]; 128 mg.kg-1 VO) [%],% of inhibition of the painful reactions ([3]; 256 mg.kg-1 VO) [%],DA50 (active dose) [3] [mg · kg - 1],LD50 (in vivo) [mg/kg],also measured
"O=c1ccc2cccnc2n1-c1cccc(C(F)(F)F)c1 [Example 4, 1-(3-trifluoromethylphenyl)1,2-dihydro 2-oxo 1,8-naphthyridine]",11,40,68,81,12,6,87,2.2,14,21,80,70,83,6,39,37,79,93,62.0,> 256,"% of protection of lesions provoked ([2]; 2 mg.kg-1 VO, ethanol lesions): 52%"
"Cc1cc2cccnc2n(-c2ccccc2)c1=O [Example 11, 1-phenyl 1,2-dihydro 2-oxo 3-methyl 1,8-naphthyridine]",,,,,,94,98,,,,,,,,,,,,,,"% of protection of lesions provoked ([1]; 0.25 mg.kg-1 VO, NSAID lesions): 1%; % of protection of lesions provoked ([1]; 0.5 mg.kg-1 VO, NSAID lesions): 34%; % of protection of lesions provoked ([1]; 1 mg.kg-1 VO, NSAID lesions): 75%; % of protection of lesions provoked ([1]; 2 mg.kg-1 VO, NSAID lesions): 100%; ED50 [1]: 0.67 mg/kg; % of protection of lesions provoked [2, 6]: 86%; % of protection of lesions provoked [2, 7]: 95%; ED50 [2]: < 0.06 mg/kg; ED50 (total acid secretion; sc): 0.065 mg/kg; % of inhibition of the total acid secretion (total acid secretion; administered SC, 0.03 mg.kg-1): 37%; % of inhibition of the total acid secretion (total acid secretion; administered SC, 0.06 mg.kg-1): 46%; % of inhibition of the total acid secretion (total acid secretion; administered SC, 0.125 mg.kg-1): 63%; % of inhibition of the total acid secretion (total acid secretion; administered SC, 0.25 mg.kg-1): 76%; % of inhibition of the total acid secretion (total acid secretion; administered SC, 0.5 mg.kg-1): 81%"
"Cc1cc2cccnc2n(-c2cccc(C(F)(F)F)c2)c1=O [Examples 3 & 10, 1-(3-trifluoromethylphenyl)1,2-dihydro 2-oxo 3-methyl 1,8-naphthyridine]",22,62,87,95,6.5,79,,0.37,10,31,47,61,64,30,26,57,58,73,69.4,> 256,"% of protection of lesions provoked ([1]; 2 mg.kg-1 VO, NSAID lesions): 15%; % of protection of lesions provoked [2, 6]: 0%; % of protection of lesions provoked ([2]; 0.125 mg.kg-1 VO, ethanol lesions): 17%; % of protection of lesions provoked [2, 7]: 42%; % of protection of lesions provoked ([2]; 0.5 mg.kg-1 VO, ethanol lesions): 64%; ED50 (total acid secretion; administered SC, linear regression): 0.72 mg/kg; ED50 (total acid secretion; po, administered VO, linear regression): 0.7 mg/kg; % of inhibition of the total acid secretion (total acid secretion; administered SC, 0.25 mg.kg-1): 4%; % of inhibition of the total acid secretion (total acid secretion; administered SC, 0.5 mg.kg-1): 38%; % of inhibition of the total acid secretion (total acid secretion; administered SC, 1 mg.kg-1): 65%; % of inhibition of the total acid secretion (total acid secretion; administered SC, 2 mg.kg-1): 90%; % of inhibition of the total acid secretion (total acid secretion; administered VO, 0.125 mg.kg-1): 2%; % of inhibition of the total acid secretion (total acid secretion; administered VO, 0.25 mg.kg-1): 18%; % of inhibition of the total acid secretion (total acid secretion; administered VO, 0.5 mg.kg-1): 59%; % of inhibition of the total acid secretion (total acid secretion; administered VO, 1 mg.kg-1): 56%; % of inhibition of the total acid secretion (total acid secretion; administered VO, 2 mg.kg-1): 75%; ED50 (oedema (carragenin); Rattus norvegicus, po, VO, linear regression, read-out: AD50 (active dose 50)): 73.3 mg/kg; % of inhibition of the painful reactions ([3]; 8 mg.kg-1 VO): 6%"
